# Measured values: patent publication US6420563B1, “Small molecule modulators of G protein-coupled receptor six” (Arena Pharmaceuticals, Inc., priority 1998, dated 2002)
# “And” between values parts separate entries of the source, which are not always exact repeats. Equal values may be shown once. Read-outs that look alike come from different tables or passages of the source.
# Assays:
# GPR6 = biological target: T1, GPR6 (Homo sapiens, UniProt P46095); assay: membrane-based cyclic AMP confirmation assay (Example 4C); type: biochemical
# T1 construct: expressed in transfected cells; 293 cells are used elsewhere
# Method in brief: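 Membranes from stably transfected cells (0.60 mg/ml protein, 30 μg/well) in 20 mM HEPES pH 7.4, 100 mM NaCl, 10 mM MgCl2 were incubated 30 min at room temperature with compound at 12 μM final. cAMP then measured by Flash Plate adenylyl cyclase detection after 2-20 h, scintillation counting.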
# [1] = Food/water intake and body weight in 24-hour food-deprived rats, IP administration; type: in vivo, rat; details: for body weight gain: vehicle 20 g
# Experimental: An in vivo assessment of GPR6 inverse agonist was accomplished by determining the effects of ARE112 on food intake after food deprivation in rats. Food deprivation was used to induce higher than normal eating behavior (e.g., controlvehicle-treated animals were hyperphagic).
# The animals (male Sprague-Dawley rats were used for the following experiments) were food deprived for 24 hr, and then injected intraperitoneally (IP) with 0, 6.75, 13.5, 27 and 54 mg/kg of compound ARE112. After 30 min, rats were introduced to standard rat chow pellets and observed thereafter for a period of 6.5 hours post-injection.
# [2] = Intracerebroventricular (ICV) administration on 24-hour food-deprived rats; type: in vivo, rat; details: for water drunk: comparable to vehicle
# Experimental: Animals were prepared with an ICV cannula aimed above the lateral ventricle. For this surgery, animals were placed under general anesthesia using continuous inhalation of isoflurane and secured in a Kopf stereotaxic instrument. Surgery was performed in a dedicated surgery room, using sterile instruments, surgical gloves and aseptic procedures to prevent clinical infections. The surgical site was shaved and disinfected with betadine solution and alcohol. Animals were observed continuously for the level of anesthesia by testing for the animals' responses to tail- or paw-pinch. A cannula made of 23 gauge stainless steel tubing (7 mm long) was lowered to a point 1 mm above the ventricle, using coordinates: A/P−0.6 mm from bregma, M/L+/−2.0 mm from bregma, D/V 3.2 mm below skull surface. The guide was anchored to the skull with three stainless steel screws and dental cement. Coordinates were based on stereotaxic atlas such as Paxinos and Watson sterotaxic atlas (Paxinos, G. and Watson, C, The Rat Brain, New York, Academic Press, 1982). After cannula implantation, a 30-gauge stainless steel dummy stylet was inserted into the cannula. At the conclusion of surgery, a heat source (heat lamp directed towards one half of recovery cage) was used to maintain body temperature while the animals recovered from anesthesia. Animals were allowed at least one week of recovery after surgery before ICV injection of compound was performed.
# Animals were food-deprived for 24 hours prior to administration of the compound.
# For ICV injection, the dummy stylet was removed from the implanted cannula, and a 30-gauge stainless steel injector cannula containing ARE112 suspension in a 45% cyclodextrin solution was inserted to a depth 1.5 mm beyond the ventral tip of the implanted cannula. The other (noninserted) end of the injector cannula was attached to 60 cm of PE10 tubing containing the compound suspension, which was attached at the free end of tubing to a 25 μl Hamilton syringe. Ten microliters of ARE112 suspension (containing, 0, 25, 50, and 100 nmol) were then delivered via gentle and even mechanical pressure to the plunger of the Hamilton syringe. The volume of injection was verified by marks on the PE 10 tubing previously calibrated with a 10 μl Hamilton syringe. At the conclusion of injection, any fluid observed from the dorsal tip of the implanted cannula upon withdrawal of the injector cannula was noted, and the dummy stylet was inserted into the implanted cannula.
# [3] = Long-term (60 days) body weight, daily repeated IP administration, non-food deprived rats; type: in vivo, rat; details: 13.5 mg/kg IP once a day for 22 days, assessed for 60 days
# Experimental: Long-term effects (60 days) of ARE112 were also examined. Animals (treatment, n=4; control, n=5) were treated once a day intraperitoneally with ARE112 for 22 days and assessed for a period of 60 days. On days 1 to 3, animals treated with dose of 13.5 mg/kg initially lost body weight and between day 4 and day 31, animals gradually gained weight, although still weighing less than vehicle treated animals. […] See, FIG. 11.
# [4] = Startle reflex in non-food deprived rats, oral administration; type: in vivo, rat; details: […] prior to testing, 12 db pre-pulse then 120 db pulse
# Experimental: As further evidence of this mild sedative activity, animals were measured to determine their startle reflexes. In this assay, ARE112 was orally administered in non-food deprived rats 4.5 hours prior to testing. Animals were subjected to a pre-pulse of 12 db followed by a 120 db pulse and subsequently measured for the height in which the animals jumped.
# [5] = Locomotor activity cages (motor function); type: in vivo, rat; details: IP
# Experimental: The effect of ARE112 on motor function was also examined. Motor function was assessed by using automated locomotor activity cages. Animals were placed in a standard rodent cage surrounded by photocell, which allowed for automated recording of motor activity. Animals were under no motivational constraints and were free to move around the cage.
# Male Sprague-Dawley rats (n=4-9 per dose) were administered ARE112 (IP) prior to placement into in locomotor activity cages.
# T1 sequence (P46095 whole entry): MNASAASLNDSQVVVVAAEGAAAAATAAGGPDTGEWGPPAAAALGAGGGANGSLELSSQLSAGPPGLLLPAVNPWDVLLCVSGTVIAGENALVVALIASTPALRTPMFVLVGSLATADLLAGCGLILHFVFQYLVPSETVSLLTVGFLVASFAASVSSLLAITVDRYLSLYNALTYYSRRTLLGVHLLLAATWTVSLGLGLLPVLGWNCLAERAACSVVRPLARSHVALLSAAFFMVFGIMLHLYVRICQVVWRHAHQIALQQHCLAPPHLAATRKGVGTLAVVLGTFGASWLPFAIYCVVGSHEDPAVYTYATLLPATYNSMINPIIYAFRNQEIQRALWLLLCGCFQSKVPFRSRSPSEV
structure (smiles),measurement,setting,value
"O=C(N=C1SSC2=NCCN21)c1cccs1 [ARE112, N-(5,6-dihydro-3H-imidazo[2,1-c]-1,2,4-dithiazol-3-ylidene)-thiophen-2-carboxamide]",IC50,"GPR6; assay number 1-3 for compound ARE112, read-out: IC50 Values (nM) cAMP",88.3 nM and 77.4 nM and 99 nM
same,IC50,"GPR6; mean +/- standard deviation (number of assays in brackets), read-out: IC50 Values Cyclic AMP Assay Example 4C",100 nM
same,body weight gain,[1]; 13.5 mg/kg IP,11 g
same,body weight gain,[1]; 27 mg/kg IP,no weight gain
same,decrease in water intake,[1]; 54 mg/kg IP,5 fold
same,food consumed (cumulative food intake),"[1]; 54 mg/kg IP, 1.5 hours after injection, vehicle about 6 grams",3 g
same,food consumed (cumulative food intake),"[1]; 54 mg/kg IP, 6.5 hours post-injection, vehicle up to 14 g",4 g
same,body weight gain,[1]; 54 mg/kg IP,no weight gain
same,water drunk,[2]; 25 nmol ICV,about 17 grams
same,water drunk,[2]; 50 nmol ICV,about 17 grams
same,water consumed,"[2]; 100 nmol ICV, relative to about 17 grams",less than half that amount
same,weight gained,"[2]; 100 nmol ICV, vehicle about 12 grams",5 grams
same,food consumed,"[2]; after three hours, ICV, vehicle about 2.5 grams",≤ 1.0 grams
same,less food consumed than vehicle,"[2]; two hours post-administration, all doses (25, 50, 100 nmol ICV)",about 6 fold
same,"body weight, long-term",[3],long-term decrease in body weight
same,startle reflex (height jumped),[4]; 13.5 mg/kg oral,did not jump as high
same,startle reflex (height jumped),[4]; 54 mg/kg oral,did not jump as high
same,locomotor activity,[5]; 1.5 hour immediately after injection,does not affect locomotor activity
same,locomotor activity,[5]; 16 hours post-injection,decreases locomotor activity
